Measured values as given in patent publication US20100029761A1, “NOVEL COMPOUNDS, PHARMACEUTICAL COMPOSITIONS CONTAINING SAME, AND METHODS OF USE FOR SAME” (priority 2005, published 2010).
Values joined by “and” are separate entries in the source; they are usually repeats but may differ in a detail not shown here. Equal entries are not always repeated.

Legend:
viral HIV protease = viral HIV protease (Human immunodeficiency virus type 1 group M subtype B, UniProt P04585); settings: cited from earlier work
[1] = system: Mycobacterium tuberculosis; settings: in vitro; cited from earlier work
[2] = target: rat liver acyl-CoA synthetase; settings: read-out: 50% inhibition of rat liver acyl-CoA synthetase; cited from earlier work
Raji cells = settings: cited from earlier work
[3] = system: β-Oxidation of (1-14C) palmitic acid in cells; assay: β-Oxidation assay, isolation of acid soluble products; assay type: cell-based; parameters: unit not given here
Experimental: A 24 well plate with 1 ml per well was prepared with 2.5×10^5 cells /well. The cells were incubated O/N. The next day, a solubilized palmitate solution was prepared. 50 μls of (1−^14C) Palmitic acid was added to a 2 ml centrifuge tube and dried under nitrogen gas. 2 mls of α-CD (α-Cyclodextran)—10 mg/ml in 10 mM Tris were added. This solution was incubated in a 37° C. water bath for 30 minutes. A hot mix was prepared by adding 25 μl of this solution to 2.5 μls of 200 μM Carnitine and 222.5 μl of serum free medium that is used for cells. The cells were then treated with the test compound in triplicate, and incubated. at 37° C. for 60 minutes. The medium was removed and 250 μl of the hot mix were added. The test compound was added again, and further incubated at 37° C. for 60 minutes. The reaction was stopped with 50 μl of 2.6 N HClO4. The contents of the plate were transferred to a 1.5 ml centrifuge tube, and 50 μl of 4N KOH were then added, and the tube incubated in a 60° C. water bath for 30 min. Sodium acetate (1 M, 75 μl) and sulfuric acid (3N, 50 μl) were added to the solution and vortexed. The tube was spun for 7 minutes at 1000 rpm at room temperature. A portion (225 μl) was removed, and the following were added (vortex after each addition, twice at the end): 938 μl of 1:1 Chloroform: Methanol; 468 μl of Chloroform; 281 μl distilled Water. The tubes were spun at 1000 rpm for 5 minutes. The upper phase was removed into a large glass scintillation vial and 5 ml of Budget solvent (scintillation liquid) was added. The tubes were well vortexed. Finally, ^14C was counted for one minute.

Q: Which results are given for C/C=C/C/C=C/CCC(=O)[C@H]1O[C@H]1C(N)=O [cerulenin, (2s, 3R)-2,3-epoxy-4-oxo-7,10 dodecadienoyl amide]?
A: concentration for inhibition of viral HIV protease (viral HIV protease): 5 mg/mL; activity against Mycobacterium tuberculosis [1]: no activity

Q: What does the source list for CCCC=CCC=CC=CC=NN=NO [Triacsin C, 1-hydroxy-3-(E, E, E-2′,4′,7′-undecatrienylidine) triazene]?
A: IC50 [2]: 8.7 µM; concentration causing growth inhibition in Raji cells (Raji cells): 1.0 µM

Q: With CCCCCCCCC1OC(=O)C(O)=C1C(=O)OCC (stereo not shown) [Compound 1] as the compound, how does the Beta oxidation ([3]; 0.04 ug/ml) read?
A: 94 and 103 and 120

Q: What about the Beta oxidation ([3]; 0.19 ug/ml) of the same compound?
A: 108 and 104 and 113

Q: And the Beta oxidation ([3]; 3.13 ug/ml)?
A: 113 and 109 and 107

Q: And the Beta oxidation ([3]; 12.5 ug/ml)?
A: 114 and 107 and 100

Q: And the Beta oxidation ([3]; 50 ug/ml)?
A: 54 and 49 and 45

Q: What about the Beta oxidation ([3]; .78 ug/ml) of the same compound?
A: 104 and 106
